Broadly, the Ki is the equilibrium dissociation constant of an inhibitor or competing ligand from its target. Low values mean higher affinity, high ones lower affinity. By IC50 is commonly meant the concentration that gives 50% inhibition.

The target in this assay is Replicase polyprotein 1ab (Severe acute respiratory syndrome coronavirus, UniProt P0C6X7). The assay can be described thus: Literature assay.

On to `CC(OC(C)(C)C)[C@H](NC(=O)OCc1ccccc1)C(=O)N[C@@H](CC1CCCCC1)C(=O)N[C@H](C=O)CC1CCNC1=O` (some centres undefined) [TG-0205221], for which the affinity corresponds to a Ki of 53 nM.

With `CC(C)C[C@H](NC(=O)[C@@H](NC(=O)OCc1ccccc1)C(C)C)C(=O)N[C@@H](C[C@@H]1CCNC1=O)C(=O)c1nc2ccccc2s1` [peptidomimetic coronavirus 3CLpro inhibitors 2i], inhibition was half-maximal at 1700 nM (IC50). On the same count and under the same terms, then `CC(C)C[C@H](NC(=O)[C@@H](NC(=O)OCc1ccccc1)C(C)C)C(=O)N[C@@H](C[C@@H]1CCNC1=O)C(=O)C(=O)N(C)C` [peptidomimetic coronavirus 3CLpro inhibitors 17], with 7 nM; and `CC(C)C[C@H](NC(=O)OCc1ccccc1)C(=O)N[C@@H](C[C@@H]1CCNC1=O)C(=O)c1nc2ccccc2s1` [peptidomimetic coronavirus 3CLpro inhibitors 25c], with 210000 nM.

The values above are taken from BindingDB's records for doi:10.1016/j.bmcl.2021.128263 (A*Star, 2021).
